From US10457677B2 (priority 2015, dated 2019)
Like-named read-outs stand apart in the source and are kept apart here.

Key:
[1] = biological target: purified human recombinant ATM (ataxia telangiectasia mutated), full length (Homo sapiens (Human), UniProt Q13315); assay: ATM kinase assay - determination of ATM inhibition (IC50 ATM), TR-FRET; assay type: biochemical
Outline: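 Full-length enzyme, expressed in a mammalian cell line, pre-incubated 15 min with inhibitor in 25 mM HEPES pH 8.0, 10 mM Mg(CH3COO)2, 1 mM MnCl2, 0,1% BSA, 0,01% Brij 35, 5 mM DTT. Full-length cmyc-p53 (Sf21-expressed) and ATP then added, 30-35 min at 22° C. EDTA stop; p53 S15 phosphorylation read by TR-FRET antibodies.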

[2] = system: phosphorylation of CHK2 (phospho-Thr68) in HCT116 cells; assay: Cellular pCHK2 assay: bleomycin-induced phosphorylation of CHK2 (phospho-Thr68), immunofluorescence high-content analysis; assay type: cell-based, human; conditions: Homo sapiens, HCT-116, 4 h, read-out: IC50 (pCHK2)
Outline: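 HCT116 cells in DMEM with 10% FCS, incubated overnight at 37° C, then given compounds (1 nM to 30 μM, 0.5% DMSO) together with 10 μM bleomycin. Phospho-Thr68 CHK2 immunostained and imaged by high-content imager; nuclei with pCHK2 above background counted, cell count from propidium iodide DNA stain.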

mTOR (human) = mTOR (human) (Homo sapiens (Human), UniProt P42345); assay: mTOR (human) kinase assay, [γ-33P-ATP] filter assay; assay type: biochemical
Outline: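 Radiometric filter assay: enzyme in 50 mM HEPES pH 7.5, 1 mM EGTA, 0.01% Tween 20, 3 mM MnCl2, 2 mg/ml substrate with [γ-33P-ATP], started with MgATP. Incubated 40 min at room temperature, stopped with 3% phosphoric acid; incorporation measured on P30 filtermat by scintillation counting.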

PI3K p110α/p85α (human) = PI3K p110α/p85α (human) (Homo sapiens (Human), UniProt P42336); assay: PI3K p110α/p85α (human), non-radioactive assay (HTRF); assay type: biochemical; conditions: read-out: IC50 (PI3Kalpha)
PI3K p110β/p85α (human) = PI3K p110β/p85α (human) (Homo sapiens (Human), UniProt P42338); assay: PI3K p110β/p85α (human), non-radioactive assay (HTRF); assay type: biochemical
Outline: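 Human p110β/p85α incubated with 10 μM phosphatidylinositol 4,5-bisphosphate and MgATP for 30 min at room temperature, stopped with EDTA plus biotinylated PIP3. HTRF detection used a Eu-anti-GST antibody, GST-GRP1 PH domain and streptavidin-APC, with signal taken as 10000×(Em665nm/Em620nm).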

PI3K p110δ/p85α (human) = PI3K p110δ/p85α (human) (Homo sapiens (Human), UniProt O00329); assay: PI3K p110δ/p85α (human), non-radioactive assay (HTRF); assay type: biochemical; conditions: read-out: IC50 (PI3Kdelta)
PI3K (p120γ) (human) = PI3K (p120γ) (human) (Homo sapiens (Human), UniProt P48736); assay: PI3K (p120γ) (human), non-radioactive assay (HTRF); assay type: biochemical; conditions: read-out: IC50 (PI3Kgamma)
Outline: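 Enzyme was run with 10 μM phosphatidylinositol 4,5-bisphosphate, starting the reaction with MgATP at an unspecified level, for 30 min at room temperature. The stop used EDTA plus biotinylated PIP3, and detection used Eu-anti-GST, GST-GRP1 PH domain and streptavidin-APC. Signal was taken as HTRF = 10000×(Em665nm/Em620nm).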

Sequence of PI3K (p120γ) (human) (P48736 whole entry, the tested form may be a part): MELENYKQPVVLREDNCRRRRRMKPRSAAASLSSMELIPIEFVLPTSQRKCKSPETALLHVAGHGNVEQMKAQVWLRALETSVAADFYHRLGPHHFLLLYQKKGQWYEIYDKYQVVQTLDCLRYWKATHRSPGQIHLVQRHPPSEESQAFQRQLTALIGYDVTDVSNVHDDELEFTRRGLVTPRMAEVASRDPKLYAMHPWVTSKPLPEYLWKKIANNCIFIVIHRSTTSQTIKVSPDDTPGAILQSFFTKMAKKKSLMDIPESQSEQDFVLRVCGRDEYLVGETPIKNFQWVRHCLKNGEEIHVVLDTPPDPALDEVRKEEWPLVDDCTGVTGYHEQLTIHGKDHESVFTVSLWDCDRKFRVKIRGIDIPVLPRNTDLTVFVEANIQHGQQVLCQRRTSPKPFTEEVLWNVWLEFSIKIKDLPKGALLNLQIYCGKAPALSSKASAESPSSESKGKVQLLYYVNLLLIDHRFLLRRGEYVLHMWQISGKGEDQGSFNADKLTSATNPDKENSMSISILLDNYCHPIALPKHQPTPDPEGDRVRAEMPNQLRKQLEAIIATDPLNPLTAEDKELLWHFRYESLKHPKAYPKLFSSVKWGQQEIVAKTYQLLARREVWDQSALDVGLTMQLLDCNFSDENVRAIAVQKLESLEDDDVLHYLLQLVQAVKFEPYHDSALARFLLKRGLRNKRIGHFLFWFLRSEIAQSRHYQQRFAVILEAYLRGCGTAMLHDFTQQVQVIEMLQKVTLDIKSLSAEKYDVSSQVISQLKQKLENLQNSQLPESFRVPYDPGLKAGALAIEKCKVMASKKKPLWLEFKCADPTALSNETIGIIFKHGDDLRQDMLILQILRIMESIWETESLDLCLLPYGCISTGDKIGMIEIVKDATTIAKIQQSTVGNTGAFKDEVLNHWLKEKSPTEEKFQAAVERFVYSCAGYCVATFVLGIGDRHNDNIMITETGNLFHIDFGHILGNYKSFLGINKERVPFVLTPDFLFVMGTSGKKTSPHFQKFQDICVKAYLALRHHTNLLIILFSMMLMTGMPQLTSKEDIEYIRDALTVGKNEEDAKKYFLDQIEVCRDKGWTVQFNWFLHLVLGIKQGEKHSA
Sequence of PI3K p110α/p85α (human) (P42336 whole entry): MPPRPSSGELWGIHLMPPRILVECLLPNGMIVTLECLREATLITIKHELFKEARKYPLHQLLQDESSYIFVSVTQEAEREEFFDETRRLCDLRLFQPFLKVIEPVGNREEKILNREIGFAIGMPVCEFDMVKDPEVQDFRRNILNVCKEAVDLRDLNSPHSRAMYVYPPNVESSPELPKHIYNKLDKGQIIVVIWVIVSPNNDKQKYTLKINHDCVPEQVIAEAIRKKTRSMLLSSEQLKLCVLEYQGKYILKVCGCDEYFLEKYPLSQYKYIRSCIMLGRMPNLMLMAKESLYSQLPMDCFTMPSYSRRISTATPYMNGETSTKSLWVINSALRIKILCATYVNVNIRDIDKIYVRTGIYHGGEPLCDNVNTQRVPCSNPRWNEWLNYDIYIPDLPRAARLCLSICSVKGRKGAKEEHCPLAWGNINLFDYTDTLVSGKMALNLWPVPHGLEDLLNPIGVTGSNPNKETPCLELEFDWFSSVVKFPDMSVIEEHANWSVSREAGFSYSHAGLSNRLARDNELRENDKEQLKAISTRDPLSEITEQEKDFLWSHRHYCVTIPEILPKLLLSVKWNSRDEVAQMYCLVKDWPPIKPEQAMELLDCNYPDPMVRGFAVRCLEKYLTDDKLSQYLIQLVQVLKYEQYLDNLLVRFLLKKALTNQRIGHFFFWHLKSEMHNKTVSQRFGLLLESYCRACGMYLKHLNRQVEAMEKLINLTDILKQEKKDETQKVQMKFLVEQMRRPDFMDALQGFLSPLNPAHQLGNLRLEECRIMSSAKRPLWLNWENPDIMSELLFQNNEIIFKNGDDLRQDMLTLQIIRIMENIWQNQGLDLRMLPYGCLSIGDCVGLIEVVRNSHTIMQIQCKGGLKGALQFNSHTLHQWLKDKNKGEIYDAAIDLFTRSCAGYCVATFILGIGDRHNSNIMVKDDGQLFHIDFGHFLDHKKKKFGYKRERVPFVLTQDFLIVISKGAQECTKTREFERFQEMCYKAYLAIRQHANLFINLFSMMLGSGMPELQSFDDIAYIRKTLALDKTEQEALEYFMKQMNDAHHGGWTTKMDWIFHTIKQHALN
Sequence of PI3K p110α/p85α (human) (P27986 whole entry partner): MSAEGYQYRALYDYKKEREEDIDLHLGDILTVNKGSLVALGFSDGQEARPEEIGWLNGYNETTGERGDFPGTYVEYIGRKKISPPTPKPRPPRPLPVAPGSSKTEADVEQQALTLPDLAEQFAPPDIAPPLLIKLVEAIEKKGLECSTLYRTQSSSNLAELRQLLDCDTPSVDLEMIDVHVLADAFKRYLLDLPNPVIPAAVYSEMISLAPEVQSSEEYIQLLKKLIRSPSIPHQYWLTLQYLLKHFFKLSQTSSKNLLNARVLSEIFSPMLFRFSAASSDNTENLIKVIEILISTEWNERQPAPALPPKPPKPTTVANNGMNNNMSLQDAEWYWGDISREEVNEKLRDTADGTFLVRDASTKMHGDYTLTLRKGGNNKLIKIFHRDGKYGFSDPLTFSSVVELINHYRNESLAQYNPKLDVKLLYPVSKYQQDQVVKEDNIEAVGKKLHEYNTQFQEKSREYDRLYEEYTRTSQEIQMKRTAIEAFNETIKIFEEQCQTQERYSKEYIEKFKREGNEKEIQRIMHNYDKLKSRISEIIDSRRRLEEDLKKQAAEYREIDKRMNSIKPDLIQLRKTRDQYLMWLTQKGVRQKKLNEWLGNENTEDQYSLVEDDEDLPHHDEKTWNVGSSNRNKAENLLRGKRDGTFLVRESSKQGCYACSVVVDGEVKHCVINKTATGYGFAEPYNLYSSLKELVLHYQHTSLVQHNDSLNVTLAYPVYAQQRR
Sequence of PI3K p110β/p85α (human) (P42338 whole entry, the tested form may be a part): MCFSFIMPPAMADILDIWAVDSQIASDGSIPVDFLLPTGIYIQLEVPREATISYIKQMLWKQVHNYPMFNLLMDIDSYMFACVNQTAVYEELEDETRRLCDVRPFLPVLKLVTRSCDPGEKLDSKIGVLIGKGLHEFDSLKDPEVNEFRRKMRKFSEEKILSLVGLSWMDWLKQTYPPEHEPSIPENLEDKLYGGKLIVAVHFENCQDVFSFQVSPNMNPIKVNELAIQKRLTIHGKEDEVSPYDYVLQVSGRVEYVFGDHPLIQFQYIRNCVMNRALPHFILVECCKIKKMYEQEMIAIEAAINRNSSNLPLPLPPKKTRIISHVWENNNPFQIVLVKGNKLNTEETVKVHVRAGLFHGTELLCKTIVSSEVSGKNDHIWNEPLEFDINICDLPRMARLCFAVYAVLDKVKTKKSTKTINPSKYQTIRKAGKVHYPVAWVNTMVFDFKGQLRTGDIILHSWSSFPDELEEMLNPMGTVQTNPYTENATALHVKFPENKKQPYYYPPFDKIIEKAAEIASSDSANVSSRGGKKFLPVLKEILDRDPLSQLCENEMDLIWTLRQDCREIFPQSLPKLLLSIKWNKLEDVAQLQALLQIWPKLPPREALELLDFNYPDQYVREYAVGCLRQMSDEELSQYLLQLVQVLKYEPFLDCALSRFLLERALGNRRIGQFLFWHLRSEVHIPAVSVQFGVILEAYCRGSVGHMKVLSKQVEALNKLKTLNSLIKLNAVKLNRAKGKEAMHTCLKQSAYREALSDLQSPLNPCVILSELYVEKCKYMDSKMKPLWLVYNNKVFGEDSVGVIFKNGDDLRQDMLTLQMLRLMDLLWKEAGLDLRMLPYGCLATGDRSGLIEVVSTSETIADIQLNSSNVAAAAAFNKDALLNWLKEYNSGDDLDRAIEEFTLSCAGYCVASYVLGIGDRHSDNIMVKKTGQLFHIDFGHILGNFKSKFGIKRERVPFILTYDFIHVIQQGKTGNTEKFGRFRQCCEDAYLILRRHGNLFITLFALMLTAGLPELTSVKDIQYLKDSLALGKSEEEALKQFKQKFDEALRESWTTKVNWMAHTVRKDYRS
Sequence of PI3K p110β/p85α (human) (P27986 whole entry partner, the tested form may be a part): as the sequence (P27986 whole entry partner) above
Sequence of PI3K p110δ/p85α (human) (O00329 whole entry): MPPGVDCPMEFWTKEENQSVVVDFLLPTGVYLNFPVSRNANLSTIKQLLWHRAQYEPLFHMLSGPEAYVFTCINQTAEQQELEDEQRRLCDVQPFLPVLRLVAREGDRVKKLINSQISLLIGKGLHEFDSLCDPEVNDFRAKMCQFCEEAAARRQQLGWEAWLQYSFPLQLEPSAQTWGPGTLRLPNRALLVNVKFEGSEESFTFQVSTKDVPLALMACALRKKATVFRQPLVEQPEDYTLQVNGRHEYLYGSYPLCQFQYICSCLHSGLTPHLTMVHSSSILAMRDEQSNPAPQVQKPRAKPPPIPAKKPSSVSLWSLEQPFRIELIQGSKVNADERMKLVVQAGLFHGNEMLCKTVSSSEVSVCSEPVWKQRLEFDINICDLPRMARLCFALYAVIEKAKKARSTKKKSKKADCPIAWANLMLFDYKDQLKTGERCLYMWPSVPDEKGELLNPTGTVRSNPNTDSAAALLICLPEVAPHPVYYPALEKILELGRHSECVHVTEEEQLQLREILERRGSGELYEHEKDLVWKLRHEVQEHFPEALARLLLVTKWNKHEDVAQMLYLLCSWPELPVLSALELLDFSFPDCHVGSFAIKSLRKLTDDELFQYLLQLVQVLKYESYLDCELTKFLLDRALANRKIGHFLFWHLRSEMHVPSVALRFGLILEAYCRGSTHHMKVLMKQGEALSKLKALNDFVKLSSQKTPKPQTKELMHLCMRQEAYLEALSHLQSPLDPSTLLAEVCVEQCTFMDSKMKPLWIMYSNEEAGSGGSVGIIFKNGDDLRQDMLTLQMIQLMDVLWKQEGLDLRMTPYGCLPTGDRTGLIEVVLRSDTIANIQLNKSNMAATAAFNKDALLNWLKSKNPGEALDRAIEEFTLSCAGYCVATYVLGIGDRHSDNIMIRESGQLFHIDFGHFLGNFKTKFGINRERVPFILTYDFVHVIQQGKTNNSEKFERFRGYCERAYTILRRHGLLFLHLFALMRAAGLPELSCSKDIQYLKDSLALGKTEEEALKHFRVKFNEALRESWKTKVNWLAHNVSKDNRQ
Sequence of PI3K p110δ/p85α (human) (P27986 whole entry partner): as the sequence (P27986 whole entry partner) above

SMILES	IC50 [1] [µM]	IC50 ([1]; 10 μM ATP, substrate p53) [µM]	IC50 [2] [µM]	IC50 (mTOR (human)) [µM]	IC50 (PI3K p110α/p85α (human)) [µM]	IC50 (PI3K p110β/p85α (human); read-out: IC50 (PI3Kbeta)) [µM]	IC50 (PI3K p110δ/p85α (human)) [µM]	IC50 (PI3K (p120γ) (human)) [µM]	IC50 (PI3K p110β/p85α (human)) [µM]
COc1cc2ncc3c(c2cc1-c1cnn(C)c1)n(-c1ccncc1C#N)c(=O)n3C [Compound Example 46, 4-[7-Methoxy-3-methyl-8-(1-methyl-1H-pyrazol-4-yl)-2-oxo-2,3-dihydroimidazo-[4,5-c]quinolin-1-yl]-nicotinonitrile]	< 0.05	< 0.05	0.2 to 1	> 30	> 30	> 30	> 30	> 30	
COc1cc2ncc3c(c2cc1-c1cnn(C)c1)n(-c1nccs1)c(=O)n3C [Compound Example 47, 7-Methoxy-3-methyl-8-(1-methyl-1H-pyrazol-4-yl)-1-thiazol-2-yl-1,3-dihydro-imidazo[4,5-c]quinolin-2-one]	< 0.01	< 0.01	0.2 to 1	> 30	> 30	> 30	> 30	> 30	
COc1cc2ncc3c(c2cc1-c1cnn(C)c1)n(-c1ccnn1C)c(=O)n3C [Compound Example 49, 7-Methoxy-3-methyl-1-(2-methyl-2H-pyrazol-3-yl)-8-(1-methyl-1H-pyrazol-4-yl)-1,3-dihydroimidazo[4,5-c]-quinolin-2-one]	< 0.01	< 0.01	0.2 to 1	> 30	> 30	> 30	> 30	> 30	
COc1cc2ncc3c(c2cc1-c1cn(C)nn1)n(-c1ncccc1F)c(=O)n3C [Compound Example 51, 1-(3-Fluoropyridin-2-yl)-7-methoxy-3-methyl-8-(1-methyl-1H-1,2,3-triazol-4-yl)-1,3-dihydroimidazo-[4,5-c]quinolin-2-one]	< 0.01	< 0.01	0.2 to 1	> 30	> 30	> 30	> 30	> 30	
COc1cc2ncc3c(c2cc1-c1cnn(C)c1)n(-c1cn[nH]c1)c(=O)n3C [Compound Example 53, 7-Methoxy-3-methyl-8-(1-methyl-1H-pyrazol-4-yl)-1-(1H-pyrazol-4-yl)-1,3-dihydroimidazo[4,5-c]-quinolin-2-one]	< 0.01	< 0.01	0.2 to 1	> 30	> 30	> 30	> 30	> 30	
COc1cc2ncc3c(c2cc1-c1cnn(C)c1)n(-c1cnn(C2CCOCC2)c1)c(=O)n3C [Compound Example 55, 7-Methoxy-3-methyl-8-(1-methyl-1H-pyrazol-4-yl)-1-[1-(tetrahydropyran-4-yl)-1H-pyrazol-4-yl]-1,3-dihydroimidazo[4,5-c]-quinolin-2-one]	< 0.01	< 0.01	0.2 to 1	> 30	> 30	> 30	> 30	> 30	
COc1cc2ncc3c(c2cc1-c1cnn(C)c1)n(-c1cncnc1)c(=O)n3C [Compound Example 57, 7-Methoxy-3-methyl-8-(1-methyl-1H-pyrazol-4-yl)-1-pyrimidin-5-yl-1,3-dihydro-imidazo[4,5-c]quinolin-2-one]	< 0.05	< 0.05	0.2 to 1	> 30	> 30	> 30	> 30	> 30	
COc1cc2ncc3c(c2cc1-c1cn[nH]c1)n(-c1cn(C)nc1C)c(=O)n3C [Example 3]	< 0.001	< 0.001	< 0.2	> 5	> 30		> 30	> 30	> 30
COc1cc2ncc3c(c2cc1-c1cn[nH]c1)n(-c1ncc(F)cc1F)c(=O)n3C [Example 6]	< 0.001	< 0.001	< 0.2	> 30	> 30		> 30	> 30	> 30
COc1cc2ncc3c(c2cc1-c1cnn(C)c1)n(-c1ccncc1)c(=O)n3C [compound 58, 7-Methoxy-3-methyl-8-(1-methyl-1H-pyrazol-4-yl)-1-pyridin-4-yl-1,3-dihydro-imidazo[4,5-c]quinolin-2-one]	< 0.01	< 0.01	0.2 to 1	> 30	> 30	> 30	> 30	> 30	
COc1cc2ncc3c(c2cc1-c1cnn(C)c1)n(-c1cn(C)cn1)c(=O)n3C [compound 59, 7-Methoxy-3-methyl-1-(1-methyl-1H-imidazol-4-yl)-8-(1-methyl-1H-pyrazol-4-yl)-1,3-dihydroimidazo[4,5-c] quinolin-2-one]	< 0.01	< 0.01	1 to 2	> 30	> 30	> 30	> 30	> 30	
COc1cc2ncc3c(c2cc1-c1cnn(C)c1)n(-c1ccncc1Cl)c(=O)n3C [compound 60, 1-(3-Chloropyridin-4-yl)-7-methoxy-3-methyl-8-(1-methyl-1H-pyrazol-4-yl)-1,3-dihydroimidazo[4,5-c] quinolin-2-one]	< 0.01	< 0.01	1 to 2	> 30	> 30	> 30	> 30	> 30	
CCn1cc(-c2cc3c(cc2OC)ncc2c3n(-c3ccncc3)c(=O)n2C)cn1 [compound 62, 8-(1-Ethyl-1H-pyrazol-4-yl)-7-methoxy-3-methyl-1-pyridin-4-yl-1,3-dihydro-imidazo[4,5-c]quinolin-2-one]	< 0.01	< 0.01	1 to 2	> 30	> 30	> 30	> 30	> 30	
